Assay [1] relates to S. pneumoniae 1/1. In words: checkerboard synergy assay with iclaprim. The class given is cell-based, Streptococcus pneumoniae. To be noted: antibiotic in combination with iclaprim. On the procedure:
(§1) The synergistic potential of iclaprim against Gram-positive and Gram-negative bacteria was determined using the checkerboard assay as described in Eliopoulos GM and Moellering, Jr. RC (1991), Antimicrobial combinations, pp. 432-492, in V. Lorian (ed.), Antibiotics in laboratory medicine, 3rd Ed., The Williams & Wilkins Co., Baltimore, the entire disclosure of which is herein incorporated by reference, allowing multiple test concentrations of iclaprim to be assayed in the presence of various concentrations of the other antibiotic in microtiter plates. The same growth media and conditions were used as described in 3.2 below.
(§2) Two different dilutions were used for iclaprim depending on the MIC determined for the bacterium. […] Iclaprim and the other antibiotic being tested were also dispensed alone in the last row and in the last column, respectively, as controls.
(§3) The Fractional Inhibitory Concentrations (FIC) for each added agent were calculated and used to determine the sum of FIC (ΣFIC) indicative of the synergistic potential of a given combination as described in Veyssier P. (1999), Inhibiteurs de la dihydrofolate reductase, nitrohétérocycles (furanes) et 8-hydroxyquinoleines, pp. 995-1027, in A. Bryskier (ed.), Antibiotiques agents antibatériens et antifongiques, 1st Ed., Ellipses Edition Marketing SA, Paris, the entire disclosure of which is herein incorporated by reference. Synergy was defined whereby the ΣFIC was <0.5, indifference (no synergy nor antagonism) whereby ΣFIC was ≥0.5 but ≤4, and antagonism whereby ΣFIC was >4. Additivity as a special form of indifference was defined whereby the ΣFIC was ≥0.5 but <1, for example as described in Stevens, D L et al. (1998), In vitro antimicrobial effects of various combinations of penicillin and clindamycin against four strains of Streptococcus pyogenes, J. Antimicrob. Chemother. 42: 1266-1268, the entire disclosure of which is herein incorporated by reference.

The test system of assay [2] is Moraxella catarrhalis RA 21. In words: checkerboard synergy assay with iclaprim. To be noted: antibiotic in combination with iclaprim; M. catarrhalis RA 21. The format is cell-based. On the procedure: as §1, §2, §3
The test system of assay [3] is Klebsiella pneumoniae ATCC 33495. In words: checkerboard synergy assay with iclaprim. The class given is cell-based. To be noted: antibiotic in combination with iclaprim; K. pneumoniae 33495. On the procedure: as §1, §2, §3
In assay [4] the test system is Haemophilus influenzae ATCC 49766. In words: checkerboard synergy assay with iclaprim. The class given is cell-based. To be noted: antibiotic in combination with iclaprim; H. influenzae 49766. On the procedure:
as §1, §2, §3

Assay [5] concerns Staphylococcus aureus ATCC 25923. Kind of assay: checkerboard synergy assay with iclaprim. The class given is cell-based. To be noted: antibiotic in combination with iclaprim; S. aureus 25923. As to the method: as §1, §2, §3
Assay [6] concerns Streptococcus pneumoniae ATCC 49619. In words: checkerboard synergy assay with iclaprim. The format is cell-based. To be noted: antibiotic in combination with iclaprim; S. pneumoniae 49619. As to the method:
as §1, §2, §3

Assay [7] has as its system S. aureus 101. Kind of assay: checkerboard synergy assay with iclaprim. The format is cell-based, Staphylococcus aureus. The settings on record: antibiotic in combination with iclaprim. As to the method:
as §1, §2, §3

For assay [8], the system named is S. pneumoniae 1/1. Kind of assay: MIC determination. To be noted: S. pneumoniae 1/1, 18 hours at 37° C., 5% CO2; for MIC: Streptococcus pneumoniae, read-out: Minimum inhibitory concentrations (MIC). The class given is cell-based, Streptococcus pneumoniae. As to the method: (§4) Minimum inhibitory concentration (MIC) determination.
(§5) In order to choose the appropriate concentrations to be tested in the checkerboard experiments, minimum inhibitory concentrations (MICs) were determined first. […] Table 6) in microtiter plates. Stock solutions (10 mg/ml) of reference antibiotics were prepared in DMSO (except for tobramycin, gentamicin, lomefloxacin, tetracycline) and stored at 4° C. The bacteria were grown in Mueller-Hinton Broth (BBL Mueller-Hinton Broth II, cation adjusted). S. pneumoniae was grown in Mueller-Hinton Broth supplemented with 5% (v/v) lysed sheep blood. For the growth of H. influenzae HTM (Haemophilus test medium) was used containing Mueller-Hinton broth, yeast extract ([…], Difco) and supplemented with NAD and hematin (HTM Supplement, Oxoid SR0158E). M. catarrhalis was grown in Brain Heart Infusion medium (Oxoid). The bacteria were incubated for 18 hours at 37° C. in ambient air except for S. pneumoniae, H. influenzae and M. catarrhalis, which were incubated in the presence of 5% CO2. The MIC was determined as the lowest concentration of an individual drug that lead to no visible growth.

The test system of assay [9] is S. aureus 101. In words: MIC determination. To be noted: for MIC: Staphylococcus aureus, 101, 18 h, read-out: Minimum inhibitory concentrations (MIC). The class given is cell-based, Staphylococcus aureus. As to the method: as §4, §5
Assay [10] relates to Moraxella catarrhalis RA 21. In words: MIC determination. The class given is cell-based. The settings on record: M. catarrhalis RA 21, 18 hours at 37° C., 5% CO2; for MIC: Moraxella catarrhalis, RA21, read-out: Minimum inhibitory concentrations (MIC). As to the method:
as §4, §5

Assay [11] relates to Klebsiella pneumoniae ATCC 33495. In words: MIC determination. The format is cell-based. To be noted: K. pneumonia 33495, 18 hours at 37° C.; for MIC: Klebsiella pneumoniae, ATCC33495, read-out: Minimum inhibitory concentrations (MIC). As to the method:
as §4, §5

Assay [12] deals with Haemophilus influenzae ATCC 49766. In words: MIC determination. The class given is cell-based. To be noted: H. Influenza 49766, 18 hours at 37° C., 5% CO2; for MIC: Haemophilus influenzae, ATCC49766, read-out: Minimum inhibitory concentrations (MIC). As to the method:
as §4, §5

Assay [13] relates to Staphylococcus aureus ATCC 25923. Kind of assay: MIC determination. The class given is cell-based. To be noted: S. aureus 25923, 18 hours at 37° C.; for MIC: Staphylococcus aureus, ATCC25923, read-out: Minimum inhibitory concentrations (MIC). As to the method:
as §4, §5

In assay [14] the test system is Streptococcus pneumoniae ATCC 49619. In words: MIC determination. The format is cell-based. The settings on record: S. pneumoniae 49619, 18 hours at 37° C., 5% CO2; for MIC: Streptococcus pneumoniae, ATCC49619, read-out: Minimum inhibitory concentrations (MIC). On the procedure:
as §4, §5

The results in this text go back to patent US20200038399A1, “FORMULATIONS, METHODS, KIT, AND DOSAGE FORMS FOR TREATING BACTERIAL INFECTION” (Motif BioSciences Inc., priority 2016, published 2020).

As for `CCn1cc(C(=O)O)c(=O)c2cc(F)c(N3CCNC(C)C3)c(F)c21` (stereo not shown) [Lomefloxacin], the “Σ FIC” value was 0.75-1.13 in the assay with S. pneumoniae 1/1 [1]; 0.63-1.13 in assay [2]; 1.13-1.50 in [3]; 1.06-1.50 in assay [4]; 1.06-1.50 in [5]; 0.75-1.13 in [6]. In addition, the “Σ FIC” value with S. aureus 101 [7] is 1.02-1.50. For the same compound, the “Con (Conclusion)” value in [2] was “Ad (Additivity (Ad))”; in assay [3], “Ind (Indifference (Ind))”; in assay [4], “Ind (Indifference (Ind))”. In addition, the MIC in the assay on S. pneumoniae 1/1 [8] worked out at 8 µg/mL; in the assay on S. aureus 101 [9], 128 µg/mL; in assay [10], 0.5 µg/mL; in [11] it was 4 µg/mL; in assay [12], 0.125 µg/mL; in assay [13] it was 1 µg/mL. The MIC in [14] was 8 µg/mL.
As to `CO[C@@]1(NC(=O)C(C(=O)O)c2ccc(O)cc2)C(=O)N2C(C(=O)O)=C(CSc3nnnn3C)CO[C@@H]21` (stereo partly shown) [Moxalactam], the “Σ FIC” value was 1.13-1.50 in the assay with S. pneumoniae 1/1 [1]; 1.00-1.25 in assay [2]; 0.75-1.25 in assay [3]; 1.06-1.50 in assay [4]; 0.56-1.25 in assay [5]; 1.00-1.25 in assay [6]. In the assay on S. aureus 101 [7], the “Σ FIC” value is 0.63-1.25. For the same compound, the “Con (Conclusion)” value in assay [2] is “Ind (Indifference (Ind))”; in [3] it was “Ad (Additivity (Ad))”; in assay [4], “Ind (Indifference (Ind))”. Also, the MIC in the assay with S. pneumoniae 1/1 [8] stood at 4 µg/mL; in the assay on S. aureus 101 [9] it was 4 µg/mL; in assay [10], 2 µg/mL; in [11], 8 µg/mL; in assay [12], 1 µg/mL; in assay [13] it was 1 µg/mL. Besides, the MIC in assay [14] stood at 1 µg/mL.
As to `CCn1cc(C(=O)O)c(=O)c2cc(F)c(N3CCNCC3)cc21` [Norfloxacin], the “Σ FIC” value in the assay with S. pneumoniae 1/1 [1] is on record as 1.13-1.50; in [2], 0.56-1.13; in assay [3] it was 0.75-1.13; in [4], 0.52-1.25; in assay [5], 0.56-1.25; in assay [6] it was 1.00-1.25. In addition, in the assay on S. aureus 101 [7], the “Σ FIC” value is 1.02-1.50. Besides, the “Con (Conclusion)” value in assay [2], in assay [3] and in assay [4] was “Ad (Additivity (Ad))” in each case. Besides, the MIC in the assay on S. pneumoniae 1/1 [8] stood at 4 µg/mL; in the assay with S. aureus 101 [9] it was 128 µg/mL; in [10] it was 0.5 µg/mL; in [11] it was 2 µg/mL; in assay [12], 0.125 µg/mL; in [13], 1 µg/mL. Further, the MIC in [14] worked out at 4 µg/mL.
`CO[C@@H]1[C@@H](OC(N)=O)[C@@H](O)[C@H](Oc2ccc3c(O)c(NC(=O)c4ccc(O)c(CC=C(C)C)c4)c(=O)oc3c2C)OC1(C)C` [Novobiocin]: the “Σ FIC” value with S. pneumoniae 1/1 [1] was 1.03-1.50; in [2] it was 1.00-1.05; in assay [3] it was 1.00-1.25; in assay [4] it was 1.03-1.50; in [5], 1.02-1.50; in assay [6], 0.75-1.13. Also, the “Σ FIC” value in the assay with S. aureus 101 [7] is 1.03-1.50. Also, the “Con (Conclusion)” value in assay [2], in assay [3] and in assay [4] was “Ind (Indifference (Ind))” in each case. In addition, the MIC with S. pneumoniae 1/1 [8] was 4 µg/mL; with S. aureus 101 [9], 0.25 µg/mL; in assay [10] it was 0.25 µg/mL; in assay [11] it was 128 µg/mL; in assay [12], 0.25 µg/mL; in assay [13], 0.5 µg/mL. Moreover, the MIC in assay [14] was 2 µg/mL.
On to `Cc1onc(-c2ccccc2)c1C(=O)N[C@@H]1C(=O)N2[C@@H]1SC(C)(C)[C@@H]2C(=O)O` [Oxacillin], for which the “Σ FIC” value is reported as 1.06-1.50 in the assay on S. pneumoniae 1/1 [1]; 1.06-1.50 in assay [2]; 1.01-1.50 in assay [3]; 1.00-1.25 in assay [4]; 1.06-1.50 in [5]; 1.06-1.50 in assay [6]. The “Σ FIC” value in the assay with S. aureus 101 [7] is recorded as 1.00-1.25. In addition, the “Con (Conclusion)” value in assay [2], in [3] and in assay [4] was “Ind (Indifference (Ind))” in each case. The MIC with S. pneumoniae 1/1 [8] is 32 µg/mL; with S. aureus 101 [9], 8 µg/mL; in [10] it was 32 µg/mL; in assay [11], more than 128 µg/mL; in [12], 16 µg/mL; in [13], 0.125 µg/mL. In [14], the MIC was determined as 2 µg/mL.
For the compound `CC1(C)S[C@@H]2[C@H](NC(=O)Cc3ccccc3)C(=O)N2[C@H]1C(=O)O` [Penicillin G], the “Con (Conclusion)” value is “Ad (Additivity (Ad))” in the assay on S. pneumoniae 1/1 [1]; “Ind (Indifference (Ind))” in [2]; “Ad (Additivity (Ad))” in assay [3]; “Ind (Indifference (Ind))” in assay [4]; “Ind (Indifference (Ind))” in [5]; “Ind (Indifference (Ind))” in [6]. Also, the “Con (Conclusion)” value in the assay with S. aureus 101 [7] was “Ind (Indifference (Ind))”. Moreover, the “Σ FIC” value in the assay on S. pneumoniae 1/1 [1] is reported as 0.75-1.13; in assay [2], 1.13-1.50; in assay [3], 0.52-1.25; in assay [4] it was 1.03-1.50; in assay [5] it was 1.00-1.25; in assay [6] it was 1.00-1.25. Further, the “Σ FIC” value in the assay with S. aureus 101 [7] was 1.00-1.25. Moreover, the “Minimum inhibitory concentrations (MIC)” value with S. pneumoniae 1/1 [8] amounted to 4 µg/mL; in the assay with S. aureus 101 [9] (S. aureus 101, 18 hours at 37° C.), 128 µg/mL; in [10] it was 16 µg/mL; in [11], 128 µg/mL; in assay [12] it was 0.25 µg/mL; in assay [13], 0.031 µg/mL. Moreover, the “Minimum inhibitory concentrations (MIC)” value in assay [14] stood at 0.25 µg/mL.
